“And” between values parts separate entries of the source, which are not always exact repeats. Equal entries are not always repeated.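 These data come from cells grown in 96-well plates and exposed to compound for 48 hours at five concentrations. GI50 is the concentration that inhibits growth by half. The concentration for full growth arrest is given as TGI.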
Legend:
Assay in all cases: growth of human tumour cells (NCI), 48 h
SNB-75 CNS = test system: SNB-75 CNS
U251 CNS = test system: U251 CNS
UACC-62 melanoma = test system: UACC-62 melanoma
SK-MEL-2 melanoma = test system: SK-MEL-2 melanoma
HCT-116 colon = test system: HCT-116 colon
KM12 colon = test system: KM12 colon
TK-10 renal = test system: TK-10 renal
HOP-62 NSCLC = test system: HOP-62 NSCLC
PC-3 prostate = test system: PC-3 prostate
MCF7 breast = test system: MCF7 breast

| Compound | TGI (SNB-75 CNS) [µM] | TGI (U251 CNS) | TGI (UACC-62 melanoma) [µM] | TGI (SK-MEL-2 melanoma) | TGI (HCT-116 colon) | TGI (KM12 colon) | TGI (TK-10 renal) [µM] | TGI (HOP-62 NSCLC) | GI50 (SNB-75 CNS) [µM] | GI50 (U251 CNS) [µM] | GI50 (SK-MEL-2 melanoma) [µM] | GI50 (HCT-116 colon) | GI50 (KM12 colon) | GI50 (PC-3 prostate) [µM] | TGI (PC-3 prostate) [µM] | GI50 (TK-10 renal) [µM] | GI50 (HOP-62 NSCLC) | GI50 (UACC-62 melanoma) | GI50 (MCF7 breast) | TGI (MCF7 breast) |
| --- | --- | --- | --- | --- | --- | --- | --- | --- | --- | --- | --- | --- | --- | --- | --- | --- | --- | --- | --- | --- |
| CC(C)(C)OP(=O)(OC(C)(C)C)C(O)c1ccc(/C=C(\C#N)C(N)=O)cc1 (stereo not given) | > 100 | > 100 µM | > 100 | > 100 µM | > 100 µM | > 100 µM | > 100 | > 100 µM |  |  |  |  |  |  |  |  |  |  |  |  |
| S=c1o[nH]c(-c2ccccc2)c1C=Nc1ccccc1 | > 100 | > 100 µM | > 100 | > 100 µM |  | > 100 µM | > 100 |  |  |  |  |  |  |  |  |  |  |  |  |  |
| COC(=O)c1cccc2c3ccccc3c3ccccc3c12 | > 100 | 73.6 µM | > 100 | 58.7 µM | > 100 µM | > 100 µM | > 100 | > 100 µM |  |  |  |  |  |  |  |  |  |  |  |  |
| CCCCCCCCOCC(O)CO (stereo not given) | > 100 | > 100 µM | > 100 | > 100 µM | > 100 µM | > 100 µM | > 100 | > 100 µM |  |  |  |  |  |  |  |  |  |  |  |  |
| CC1=CC(C)(c2c[nH]c3ccccc23)CC(C)(C)c2c1[nH]c1ccccc21 (stereo not given) | 67.4 | 32 µM | 36.6 |  | 26.7 µM | > 100 µM | > 100 | 79.7 µM |  |  |  |  |  |  |  |  |  |  |  |  |
| CC1(C)CCCC2(C)C3C(O)CC2(C)C(O)C31 (stereo not given) | > 100 | > 100 µM | > 100 | > 100 µM | > 100 µM | > 100 µM | > 100 | > 100 µM |  |  |  |  |  |  |  |  |  |  |  |  |
| N#Cc1c(-c2ccccc2)cc(-c2ccc(N)cc2)[nH]c1=O | > 100 | > 100 µM | > 100 |  | > 100 µM | > 100 µM | > 100 | > 100 µM |  |  |  |  |  |  |  |  |  |  |  |  |
| Cc1ccccc1NC(=O)/C=N/O | > 100 | > 100 µM | 27.9 | > 100 µM | > 100 µM | > 100 µM | > 100 | > 100 µM |  |  |  |  |  |  |  |  |  |  |  |  |
| Cc1ccc(S(=O)(=O)N/N=C(\c2nc3ccc([N+](=O)[O-])cc3[nH]c2=O)C(O)c2ccc([N+](=O)[O-])cc2)cc1 (stereo not given) | > 100 | > 100 µM | > 100 | > 100 µM |  |  | > 100 | > 100 µM |  |  |  |  |  |  |  |  |  |  |  |  |
| N#Cc1cnc2cc(OC[C@@H](O)CO)c(NC(=O)C3CCCC3)cc2c1Nc1ccc(OCc2cccc(F)c2)c(Cl)c1 | > 50 | 15.6 µM |  | 1.86 µM | 1.1 µM | 14.2 µM | 7.21 | 2.62 µM | 2.19 | 6.79 | 0.915 | 0.4 µM | 3.84 µM | 0.947 | 1.92 | 1.99 | 1.03 µM |  |  |  |
| Nc1ccc(-c2cc(C(=O)Nc3nccs3)[nH]c(=S)n2)cc1 | > 100 | > 100 µM | > 100 | > 100 µM | > 100 µM | > 100 µM | > 100 |  |  |  |  |  |  |  |  |  |  |  |  |  |
| O=C1C(=C2CCCC2)CCC1CN1CCCCC1 (stereo not given) | 15.5 | > 100 µM | 34 | 30.7 µM | 38.1 µM | 39.7 µM | 27.1 |  |  |  |  |  |  |  |  |  |  |  |  |  |
| CCCCC(C)/C=C/C(=O)C1=C(O)/C(=C/C(=O)O)OC1=O (stereo not given) | > 100 | > 100 µM | > 100 | > 100 µM | > 100 µM | > 100 µM | > 100 | > 100 µM |  |  |  |  |  |  |  |  |  |  |  |  |
| O=C1CC(c2c(-c3ccccc3)[nH]c3ccccc23)C(=O)N1c1ccccc1 (stereo not given) | > 100 | > 100 µM | > 100 | > 100 µM | > 100 µM | > 100 µM | > 100 | 94 µM |  |  |  |  |  |  |  |  |  |  |  |  |
| Nc1nonc1-c1nc2ccccc2n1Cc1ccc(F)cc1 | 9.52 | > 100 µM | > 100 |  | > 100 µM | > 100 µM | > 100 | > 100 µM | 1.41 | 7.48 |  | 4.81 µM | 3.71 µM |  |  | 6.78 | 14.6 µM | 4.63 µM | 3.78 µM | > 100 µM |
| Cc1ccc(S(=O)(=O)NC(=O)NCCc2ccccc2)cc1 | > 100 | > 100 µM | > 100 | > 100 µM | > 100 µM | > 100 µM | > 100 | > 100 µM |  |  |  |  |  |  |  |  |  |  |  |  |
| C[C@H]1C/C=C/[C@H]2[C@@H]3O[C@]3(C)[C@@H](C)[C@H]3[C@H](Cc4ccccc4)NC(=O)[C@]32OC(=O)O/C=C/[C@@](C)(O)C1=O |  | 1.14 µM and 4.02 µM and 0.424 µM |  | 38.6 µM and 125 µM | 6.75 µM and 16.3 µM and 33.6 µM | 125 µM and > 250 µM |  | 0.185 µM and 0.164 µM and 0.067 µM | 0.025 | 0.025 | 34.2 | 0.0578 µM and 0.0207 µM and 0.0301 µM | 11.7 µM and 29.1 µM |  |  |  | 0.0125 µM and 0.025 µM | 0.0652 µM and 0.025 µM | 0.0125 µM and 0.025 µM | 64.4 µM and 125 µM and 67.2 µM |

Reference: PubChem BioAssay (NCI)
